Measured values taken from patent EP0336356A2, “Derivatives of tryptophan as CCK antagonists” (ABBOTT LABORATORIES, priority 1988, dated 1989).

Key:
CCK receptors [1] = test: Antagonism of CCK mediated behavioral effect in mice (reversal of CCK-induced inactivity); format: in vivo; details: minimally effective dose, ICV, coadministered with CCK₈ 3 nmol, male Swiss CD-1 mice, statistically significant reversal of CCK-induced inactivity
From the text: Male Swiss CD-1 mice (Charles River) (22-27 g) were provided with ample food (Purina Lab (show) and water until the time of their injection with the test compound.
ICV injections were given by a free-hand method similar to that previously described (Haley, and McCormick, Br. J. Pharmacol. Chemother. 12 12-15 (1957)). The animals were placed on a slightly elevated metal grid and restrained by the thumb and forefinger at the level of the shoulders, thus immobilizing their heads. Injections were made with a 30 gauge needle with a "stop" consisting of a piece of tygon tubing to limit penetration of the needle to about 4.5 mm below the surface of the skin. The needle was inserted perpendicular to the skull at a midline point equidistant from thje eye and an equal distance posterior from the level of the eyes such that the injection site and the two eyes form an equilateral triangle. The injection volme (5 ul) was expelled smoothly over a period of approximately 1 second. […]
For the behavioral observations, the mice were placed in clear plastic cages. Each cage measured 19 x 26 x 15 centimeters and contained a 60-tube polypropylene test tube rack (NALGENE #5970-0020) placed on end in the center of the cage to enhance exploratory activity. […] Differences among groups were analyzed by Newman-Kewels analysis and a probability level of p<0.05 was accepted as significant. […]

CCK receptors [2] = molecular target: T1, CCK receptors (Cavia porcellus, UniProt Q63931); test: [125I]BH-CCK8 radioligand binding, guinea pig pancreatic membranes; details: 37°C for 30 min, read-out: IC₅₀ (nM) [¹²⁵I]-BH-CCK₈ Pancreas
T1 construct: cortex and pancreas were removed and rinsed with ice-cold saline; from tissue; host or cells: guinea pig pancreas membranes
T1 sequence (Q63931 1-430): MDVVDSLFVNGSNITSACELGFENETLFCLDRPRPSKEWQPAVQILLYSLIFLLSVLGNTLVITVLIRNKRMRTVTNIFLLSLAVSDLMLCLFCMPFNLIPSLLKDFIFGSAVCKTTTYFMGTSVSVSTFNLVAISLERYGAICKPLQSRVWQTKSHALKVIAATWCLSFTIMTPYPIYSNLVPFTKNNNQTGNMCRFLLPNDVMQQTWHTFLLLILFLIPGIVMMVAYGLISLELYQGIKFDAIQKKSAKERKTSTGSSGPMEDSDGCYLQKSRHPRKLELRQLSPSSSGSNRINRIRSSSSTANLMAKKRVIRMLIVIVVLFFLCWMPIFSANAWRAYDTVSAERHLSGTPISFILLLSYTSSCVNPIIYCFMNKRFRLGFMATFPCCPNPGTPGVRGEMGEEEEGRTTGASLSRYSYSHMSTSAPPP

CCK receptors [3] = molecular target: T1, CCK receptors; test: Inhibition of CCK8-stimulated amylase release from guinea pig pancreatic acini; format: cell-based; details: reference concentration for CCK₈ 3x10⁻¹⁰M, 37°C, 30 min, read-out: IC₅₀ (nM) Inhibition of Amylase Release
Method: This assay was performed using the modified protocol of Lin et al., J. Pharmacol Exp. Ther. 236, 729-734, 1986. Guinea pig acini were prepared by the method of Bruzzone et al. (Biochem. J. 226, 621-624, 1985) as follows. Pancreas was dissected out and connective tissues and blood vessels were removed. […] The composition of the KRH buffer was: HEPES, 12.5 mM: NaCl, 118 mM; […] CaCl₂, 1 mM; KH₂PO₄, 1.2 mM; MgSO₄, 1.2 mM; NaHCO₃, 5 mM; glucose, 10 mM, pH 7.4. The buffer was supplemented with 1% MEM vitamins, 1% MEM amino acids and 0.001% aprotinin. The tube was shaken by hand until the suspension appeared homogeneous, usually 5 to 6 min. 5 mL of the KRH, without collagenase and with 0.1% BSA, were added and the tube was centrifuged at 50 x g for 35 sec. The supernatant was discarded and 6 mL of the KRH were added to the cell pellet. […] This wash procedure was repeated once. The cell pellet from the last centrifugation step was then resuspended in 15 mL of KRH containing 0.1% BSA. The contents were filtered through a dual nylon mesh, size 275 and 75 um. The filtrate, containing the acini, were centrifuged at 50 x g for 3 min. The acini were then resuspended in 5 mL of KRH-BSA buffer for 30 min at 37°C, under 100% O₂, with a change of fresh buffer at 15 min. After the 30 min incubation time, the acini were resuspended in 100 volumes of KRH-BSA buffer, containing 3 uM phosphoramidon and 100 µM bestatin. […] The final assay volume was 500 uL. Tubes were vortexed and placed in a 37°C waterbath, under 100% O₂, for 30 min. Afterward, tubes were centrifuged at 10,000 g for 1 min. Amylase activity in the supernatant and the cell pellet were separately determined after appropriate dilutions in 0.1% Triton X-100, 10 mM NaH₂PO₄, pH 7.4 by Abbott Amylase A-gent test using the Abbott Bichromatic Analyzer 200. […]

CCK receptors [4] = molecular target: T2, CCK receptors (Cavia porcellus, UniProt H0VZC5); test: [125I]BH-CCK8 radioligand binding, guinea pig cerebral cortical membranes; details: 30°C for 150 min, read-out: IC₅₀ (nM) [¹²⁵I]-BH-CCK₈ Cortex
T2 construct: cortex and pancreas were removed and rinsed with ice-cold saline; from tissue; host or cells: guinea pig cerebral cortex membranes
T2 sequence (H0VZC5 1-426): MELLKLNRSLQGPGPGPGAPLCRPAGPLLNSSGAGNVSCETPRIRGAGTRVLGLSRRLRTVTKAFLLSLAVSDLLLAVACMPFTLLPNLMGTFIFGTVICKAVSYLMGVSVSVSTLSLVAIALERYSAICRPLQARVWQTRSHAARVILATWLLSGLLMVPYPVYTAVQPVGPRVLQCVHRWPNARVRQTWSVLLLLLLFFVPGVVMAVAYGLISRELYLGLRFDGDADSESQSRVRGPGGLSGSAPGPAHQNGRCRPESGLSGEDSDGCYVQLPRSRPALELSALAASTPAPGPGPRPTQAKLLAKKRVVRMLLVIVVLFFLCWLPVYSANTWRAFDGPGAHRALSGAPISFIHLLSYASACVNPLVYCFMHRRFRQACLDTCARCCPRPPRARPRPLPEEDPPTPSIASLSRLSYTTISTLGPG

IC50 (CCK receptors [2]) | IC50 (CCK receptors [3]) | IC50 (CCK receptors [4]) | SMILES | MED (CCK receptors [1])
14 nM | 42 nM | 15000 nM | CCCCCN(CCCCC)C(=O)[C@@H](Cc1c[nH]c2ccccc12)NC(=O)c1cnc2ccccc2c1 [Example 21, N-(3′-Quinolylcarbonyl)-R-Tryptophan-di-n-pentylamide] | 0.3 nmol
88 nM | < 10000 nM | 9200 nM | CCOC(=O)CN(Cc1ccccc1)C(=O)[C@@H](Cc1c[nH]c2ccccc12)NC(=O)c1cnc2ccccc2c1 [Example 29, Ethyl N-(3′-Quinolylcarbonyl)-R-Tryptophyl-(N-benzyl)Glycinate] | –
300 nM | < 100000 nM | > 10000 nM | COC(=O)[C@H](NC(=O)C(Cc1c[nH]c2ccccc12)NC(=O)c1cnc2ccccc2c1)c1ccccc1 (stereo partly shown) [Example 31, Methyl N-(3′-Quinolylcarbonyl)-Tryptophyl-R-Phenylglycinate] | –
120 nM | < 30000 nM | > 10000 nM | COC(=O)[C@@H](NC(=O)C(Cc1c[nH]c2ccccc12)NC(=O)c1cnc2ccccc2c1)c1ccccc1 (stereo partly shown) [Example 32, Methyl N-(3′-Quinolylcarbonyl)-Tryptophyl-S-Phenylglycinate] | –
530 nM | < 30000 nM | 10000 nM | CN(Cc1ccccc1)C(=O)C(Cc1c[nH]c2ccccc12)NC(=O)c1cnc2ccccc2c1 (stereo not shown) [Example 33, N-(3′-Quinolylcarbonyl)-Tryptophan-(N-methyl,N-benzyl)amide] | –
380 nM | < 10000 nM | > 10000 nM | C[C@H](NC(=O)[C@@H](Cc1c[nH]c2ccccc12)NC(=O)c1cnc2ccccc2c1)c1ccccc1 [Example 36, N-(3′-Quinolylcarbonyl)-R-Tryptophan-(1′,S-phenylethyl)amide] | –
110 nM | < 10000 nM | > 10000 nM | C[C@@H](NC(=O)[C@@H](Cc1c[nH]c2ccccc12)NC(=O)c1cnc2ccccc2c1)c1ccccc1 [Example 39, N-(3′-Quinolylcarbonyl)-R-Tryptophan-(1′,R-phenylethyl)amide] | –
1000 nM | < 100000 nM | 10000 nM | O=C(NC(Cc1c[nH]c2ccccc12)C(=O)N1CCC2CCCCC2C1)c1cnc2ccccc2c1 (stereo not shown) [Example 40, N-(3′-Quinolylcarbonyl)-Tryptophan-perhydroisoquinolylamide] | –
670 nM | < 100000 nM | 6300 nM | CCCCCN(CCCCC)C(=O)[C@H](Cc1c[nH]c2ccccc12)NC(=O)c1cnc2ccccc2c1 [Example 100, N-(3′-Quinolylcarbonyl)-S-Tryptophan-di-n-pentylamide] | –
